Data reported in patent publication US20150005262A1, “HYPOXIA ACTIVATED PRODRUGS AND MTOR INHIBITORS FOR TREATING CANCER” (THRESHOLD PHARMACEUTICALS, INC., priority 2011, published 2015).
Entries after “also recorded” stand apart in the source; their conditions may differ.

Experiments:
DNA-PK = DNA-PK (Homo sapiens, UniProt P78527); conditions: cited from earlier work
mTOR = mTOR (Homo sapiens, UniProt P42345); conditions: cited from earlier work
PI3K = conditions: read-out: IC50 for PI3-K; cited from earlier work
NCI-60 cell lines panel = conditions: cited from earlier work
786-0 cells [1] = experiment: 786-0 RCC ectopic xenograft, TH-302 with everolimus; type: in vivo, nude mice; conditions: 786-0 model; everolimus 5 mg/kg QD×19 p.o.; TH-302 50 mg/kg QD×5/week×3 weeks i.p.; both started day 1
SK-N-BE(2) cells = experiment: SK-N-BE(2) ectopic neuroblastoma model, TH-302 with everolimus; type: in vivo; conditions: SK-N-BE(2) model; everolimus 5 mg/kg QD×19 oral; TH-302 50 mg/kg QD×5/week×3 weeks i.p.
Caki-1 cells [2] = experiment: Caki-1 RCC ectopic xenograft, TH-302 with temsirolimus; type: in vivo, nude mice; conditions: Caki-1 model, temsirolimus 20 mg/kg QD×19 i.p.
Source text: (§1) In one combination therapy group, the temsirolimus and TH-302 administration both began on day 1; in the other combination therapy group, the TH-302 administration was initiated on day 8 after the first temsirolimus administration. Thus, two TH-302 monotherapy groups served as comparison groups (one group starting on day 1 and the other starting on day 8). […] The weight returned to normal when treatment stopped.

[3] = test system: 786-0 RCC xenograft tumors; experiment: Tumor hypoxia (pimonidazole, morphometric analysis) in 786-0 xenograft; type: in vivo, nude mice; conditions: for tumor hypoxic fraction: everolimus 5 mg/kg oral QD×8, TH-302 150 mg/kg i.p., sampled 72 hr after TH-302
Caki-1 cells [4] = experiment: Caki-1 RCC ectopic xenograft, TH-302 with everolimus; type: in vivo, nude mice; conditions: Caki-1 model; everolimus 5 mg/kg QD×19 p.o.; TH-302 50 mg/kg QD×5/week×3 weeks i.p.; both started day 1
[5] = test system: Caki-1 RCC xenograft tumors; experiment: Tumor hypoxia (pimonidazole, morphometric analysis) in Caki-1 xenograft; type: in vivo, nude mice; conditions: for tumor hypoxic fraction: temsirolimus 20 mg/kg i.p. QD×8, TH-302 150 mg/kg i.p., sampled 72 hr after TH-302; for change of tumor hypoxia (in words): vs vehicle, combination vs mTOR inhibitor alone
Method: Nude mice bearing 786-0 or Caki-1 RCC xenograft tumors were randomized into 4 groups (6-8 mice/group): vehicle, mTOR inhibitor, TH-302 monotherapy, and TH-302 in combination with mTOR inhibitor, respectively. In the mTOR inhibitor monotherapy group, animals were dosed with a QD×8 regimen, and tumors were sampled 4 hr after the last treatment. In the TH-302 monotherapy group, 150 mg/kg was administered intraperitoneally to the animals, and the tumors were sampled 72 hr after the TH-302 treatment. In the combination therapy group, TH-302 was administered 4 hr after the last dose of mTOR inhibitor (QD×8, oral), and the tumors were sampled 72 hr later. Pimonidazole was administered 1 hr before euthanization (tumors were sampled on euthanization).
A dose of 20 mg/kg of temsirolimus was administered intraperitoneally in the Caki-1 xenograft model. […] After temsirolimus treatment, the tumor hypoxic fraction was 12.8±0.7%, as compared to 7.5±1.9% in vehicle treated group (p<0.05). The tumor hypoxic fraction in the TH-302 monotherapy group was 4.3±0.7%.

Ki67, CD31, p-S6 = experiment: Pharmacodynamic study using immunohistochemistry of tumor tissue; type: in vivo, nude mice; conditions: after 7 days treatment of everolimus
786-0 cells [6] = experiment: 786-0 RCC ectopic xenograft, TH-302 with temsirolimus; type: in vivo, nude mice; conditions: 786-0 model; temsirolimus 20 mg/kg QD×19 i.p.; TH-302 50 mg/kg QD×5/week×2 to 3 weeks i.p.; combination range covers day 1 and day 8 schedules
Source text: as §1

DNA-PK, sequence (P78527 whole entry): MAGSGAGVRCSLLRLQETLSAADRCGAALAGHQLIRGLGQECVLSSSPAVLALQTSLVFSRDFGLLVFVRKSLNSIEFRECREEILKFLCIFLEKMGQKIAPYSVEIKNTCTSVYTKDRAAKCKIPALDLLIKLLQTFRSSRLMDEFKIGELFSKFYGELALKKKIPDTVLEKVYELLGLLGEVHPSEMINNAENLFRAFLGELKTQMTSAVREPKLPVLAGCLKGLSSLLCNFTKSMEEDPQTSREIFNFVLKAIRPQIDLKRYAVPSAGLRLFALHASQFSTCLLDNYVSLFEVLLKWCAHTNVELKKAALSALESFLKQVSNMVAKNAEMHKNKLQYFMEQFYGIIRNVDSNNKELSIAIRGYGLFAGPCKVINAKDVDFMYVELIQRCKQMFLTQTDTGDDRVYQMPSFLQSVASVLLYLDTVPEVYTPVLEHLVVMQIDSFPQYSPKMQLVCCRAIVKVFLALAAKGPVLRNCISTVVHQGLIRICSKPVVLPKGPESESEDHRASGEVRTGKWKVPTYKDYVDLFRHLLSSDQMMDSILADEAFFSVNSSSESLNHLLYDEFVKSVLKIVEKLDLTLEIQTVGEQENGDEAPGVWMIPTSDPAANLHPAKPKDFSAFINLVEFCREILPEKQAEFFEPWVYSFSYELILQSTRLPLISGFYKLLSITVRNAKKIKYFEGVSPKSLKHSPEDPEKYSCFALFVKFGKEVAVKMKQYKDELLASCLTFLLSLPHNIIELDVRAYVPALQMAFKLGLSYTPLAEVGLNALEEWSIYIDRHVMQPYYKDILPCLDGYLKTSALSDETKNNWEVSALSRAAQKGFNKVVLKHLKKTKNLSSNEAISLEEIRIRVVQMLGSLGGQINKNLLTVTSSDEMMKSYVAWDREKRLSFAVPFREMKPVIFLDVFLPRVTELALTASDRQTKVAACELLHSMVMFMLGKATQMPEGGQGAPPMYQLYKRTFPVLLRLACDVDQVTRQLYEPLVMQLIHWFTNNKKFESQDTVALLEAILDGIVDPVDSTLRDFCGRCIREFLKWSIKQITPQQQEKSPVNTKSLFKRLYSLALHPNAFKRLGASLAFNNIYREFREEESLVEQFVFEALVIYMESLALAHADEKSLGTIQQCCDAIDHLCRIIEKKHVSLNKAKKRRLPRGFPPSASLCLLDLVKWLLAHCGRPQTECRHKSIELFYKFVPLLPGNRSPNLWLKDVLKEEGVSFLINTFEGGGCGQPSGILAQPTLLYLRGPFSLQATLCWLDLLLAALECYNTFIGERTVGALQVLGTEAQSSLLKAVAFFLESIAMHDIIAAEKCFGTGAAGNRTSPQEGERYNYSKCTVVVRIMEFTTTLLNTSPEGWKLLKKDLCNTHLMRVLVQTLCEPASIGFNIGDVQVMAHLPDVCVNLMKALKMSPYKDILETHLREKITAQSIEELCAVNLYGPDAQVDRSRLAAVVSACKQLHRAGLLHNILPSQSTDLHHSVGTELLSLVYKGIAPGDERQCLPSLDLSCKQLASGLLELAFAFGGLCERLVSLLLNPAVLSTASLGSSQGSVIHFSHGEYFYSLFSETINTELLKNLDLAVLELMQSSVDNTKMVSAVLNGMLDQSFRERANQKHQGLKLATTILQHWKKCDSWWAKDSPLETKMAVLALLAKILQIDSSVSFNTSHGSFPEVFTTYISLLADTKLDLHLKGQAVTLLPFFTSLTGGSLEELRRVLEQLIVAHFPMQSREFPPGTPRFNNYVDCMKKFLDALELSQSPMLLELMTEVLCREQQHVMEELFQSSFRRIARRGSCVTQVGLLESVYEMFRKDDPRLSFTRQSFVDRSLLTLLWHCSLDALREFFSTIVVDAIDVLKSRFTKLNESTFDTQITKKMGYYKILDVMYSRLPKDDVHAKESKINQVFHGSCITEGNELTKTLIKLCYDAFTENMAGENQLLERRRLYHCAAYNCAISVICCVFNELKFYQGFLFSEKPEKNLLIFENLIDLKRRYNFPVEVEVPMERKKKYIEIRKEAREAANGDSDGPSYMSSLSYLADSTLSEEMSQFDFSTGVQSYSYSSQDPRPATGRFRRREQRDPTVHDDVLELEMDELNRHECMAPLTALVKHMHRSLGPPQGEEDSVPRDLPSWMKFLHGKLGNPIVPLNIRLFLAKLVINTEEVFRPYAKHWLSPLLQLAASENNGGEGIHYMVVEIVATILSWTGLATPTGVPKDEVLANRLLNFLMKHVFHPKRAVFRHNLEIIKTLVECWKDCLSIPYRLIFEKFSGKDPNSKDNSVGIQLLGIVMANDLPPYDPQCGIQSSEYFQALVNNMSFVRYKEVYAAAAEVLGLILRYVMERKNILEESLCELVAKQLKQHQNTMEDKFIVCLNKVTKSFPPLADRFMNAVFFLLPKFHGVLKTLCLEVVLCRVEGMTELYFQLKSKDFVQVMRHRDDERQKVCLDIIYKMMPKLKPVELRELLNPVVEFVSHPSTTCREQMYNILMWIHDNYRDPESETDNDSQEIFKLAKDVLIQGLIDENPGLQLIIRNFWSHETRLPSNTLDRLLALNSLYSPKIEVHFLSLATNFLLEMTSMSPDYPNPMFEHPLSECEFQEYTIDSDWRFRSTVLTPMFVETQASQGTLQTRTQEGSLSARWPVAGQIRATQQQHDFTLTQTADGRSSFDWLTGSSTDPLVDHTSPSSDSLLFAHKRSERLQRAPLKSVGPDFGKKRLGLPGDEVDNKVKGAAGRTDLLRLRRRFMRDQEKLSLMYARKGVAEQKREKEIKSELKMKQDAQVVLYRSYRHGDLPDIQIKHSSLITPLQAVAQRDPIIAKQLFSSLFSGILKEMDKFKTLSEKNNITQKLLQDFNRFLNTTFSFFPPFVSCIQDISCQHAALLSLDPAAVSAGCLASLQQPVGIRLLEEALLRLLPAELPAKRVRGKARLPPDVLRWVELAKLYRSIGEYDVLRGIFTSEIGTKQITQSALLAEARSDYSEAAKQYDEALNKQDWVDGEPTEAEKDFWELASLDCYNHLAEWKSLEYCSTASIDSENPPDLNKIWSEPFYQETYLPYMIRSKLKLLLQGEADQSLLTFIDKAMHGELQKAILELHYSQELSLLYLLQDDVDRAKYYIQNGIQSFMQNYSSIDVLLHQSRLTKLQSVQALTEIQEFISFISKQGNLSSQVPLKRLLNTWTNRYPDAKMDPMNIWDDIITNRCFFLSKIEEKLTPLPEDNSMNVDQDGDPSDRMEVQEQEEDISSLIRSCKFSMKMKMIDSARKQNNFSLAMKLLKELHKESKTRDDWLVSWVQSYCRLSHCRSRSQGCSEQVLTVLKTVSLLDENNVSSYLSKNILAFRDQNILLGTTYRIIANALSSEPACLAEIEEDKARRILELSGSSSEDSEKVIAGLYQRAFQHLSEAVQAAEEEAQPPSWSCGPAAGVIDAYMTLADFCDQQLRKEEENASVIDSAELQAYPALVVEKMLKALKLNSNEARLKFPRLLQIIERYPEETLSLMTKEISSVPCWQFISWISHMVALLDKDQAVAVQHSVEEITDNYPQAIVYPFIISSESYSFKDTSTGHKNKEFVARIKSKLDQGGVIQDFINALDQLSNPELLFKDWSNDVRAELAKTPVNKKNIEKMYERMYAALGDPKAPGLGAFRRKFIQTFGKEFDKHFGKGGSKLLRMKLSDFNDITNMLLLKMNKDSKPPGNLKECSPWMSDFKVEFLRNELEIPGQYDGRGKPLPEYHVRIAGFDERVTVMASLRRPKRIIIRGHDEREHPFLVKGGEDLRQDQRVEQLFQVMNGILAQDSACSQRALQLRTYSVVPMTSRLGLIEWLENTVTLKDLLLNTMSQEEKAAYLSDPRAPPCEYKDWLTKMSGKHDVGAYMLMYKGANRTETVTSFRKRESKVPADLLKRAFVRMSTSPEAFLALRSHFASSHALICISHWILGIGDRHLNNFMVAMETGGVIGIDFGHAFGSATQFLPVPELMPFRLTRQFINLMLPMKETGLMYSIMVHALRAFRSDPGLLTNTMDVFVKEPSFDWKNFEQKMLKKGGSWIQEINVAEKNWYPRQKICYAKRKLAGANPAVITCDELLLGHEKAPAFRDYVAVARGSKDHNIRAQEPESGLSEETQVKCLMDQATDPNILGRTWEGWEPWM

O=c1cc(N2CCOCC2)oc2c(-c3cccc4c3sc3ccccc34)cccc12 [NU7441]
IC50 (DNA-PK): 10 nM
IC50 (mTOR): 1700 nM
IC50 (PI3K): 5 µM

COc1ccc(COc2cc3oc(=O)c4cc(C(C)O)ccc4c3cc2OC)cc1 (stereo not drawn) [Palomid 529]
GI50 (NCI-60 cell lines panel): < 35 µM

Cn1c(COP(=O)(NCCBr)NCCBr)cnc1[N+](=O)[O-] [TH-302]
tumor growth inhibition (TGI) (786-0 cells [1]): did not demonstrate statistically significant efficacy; also recorded: did not demonstrate statistically significant TGI
tumor growth inhibition (TGI) (SK-N-BE(2) cells): 45%
tumor growth inhibition (TGI) (Caki-1 cells [2]; TH-302 50 mg/kg i.p. starting on day 1): 79%
tumor growth inhibition (TGI) (Caki-1 cells [2]; TH-302 50 mg/kg i.p. starting on day 8): 89%
tumor hypoxic fraction [3]: 3.7±1.2%
tumor growth inhibition (TGI) (Caki-1 cells [4]): 57%
tumor hypoxic fraction [5]: 4.3±0.7%
change of tumor hypoxia (in words) [5]: reduces the size of the hypoxic region

c1cncc(CN2CCC(n3ncc4c(N5CCOCC5)nc(-c5ccc6[nH]ccc6c5)nc43)CC2)c1 [WAY-600]
IC50 (mTOR): 9 nM

COC(=O)Nc1ccc(-c2nc(N3CCOCC3)c3cnn(C4CCN(C(=O)OC)CC4)c3n2)cc1 [WYE-354]
IC50 (mTOR): 5 nM

CNC(=O)Nc1ccc(-c2nc(N3CC4CCC(C3)O4)c3cnn(C4CCC5(CC4)OCCO5)c3n2)cc1 [WYE-125132]
IC50 (mTOR): 0.19 nM

CO[C@H]1C[C@@H]2CC[C@@H](C)[C@@](O)(O2)C(=O)C(=O)N2CCCC[C@H]2C(=O)O[C@H]([C@H](C)C[C@@H]2CC[C@@H](OCCO)[C@H](OC)C2)CC(=O)[C@H](C)/C=C(\C)[C@@H](O)[C@@H](OC)C(=O)[C@H](C)C[C@H](C)/C=C/C=C/C=C/1C [everolimus]
IC50 (mTOR): 0.6 nM
cell proliferation (expression of nuclear antigen Ki67) (Ki67, CD31, p-S6): significantly decreased
microvessel density (angiogenic marker CD31) (Ki67, CD31, p-S6): significantly decreased
phosphorylation of the S6 ribosomal protein (p-S6) (Ki67, CD31, p-S6): significantly decreased
tumor growth inhibition (TGI) (786-0 cells [1]): 49%
tumor growth inhibition (TGI) (SK-N-BE(2) cells): 40%
tumor hypoxic fraction [3]: 6.3±1.5%
change of tumor hypoxia (in words) ([3]; vs vehicle, combination vs mTOR inhibitor alone): increased hypoxia in the tumor; also recorded: significantly increases tumor hypoxia
tumor growth inhibition (TGI) (Caki-1 cells [4]): 52%

CO[C@H]1C[C@@H]2CC[C@@H](C)[C@@](O)(O2)C(=O)C(=O)N2CCCC[C@H]2C(=O)O[C@H]([C@H](C)C[C@@H]2CC[C@@H](OC(=O)C(C)(CO)CO)[C@H](OC)C2)CC(=O)[C@H](C)/C=C(\C)[C@@H](O)[C@@H](OC)C(=O)[C@H](C)C[C@H](C)/C=C/C=C/C=C/1C [temsirolimus]
tumor growth inhibition (TGI) (786-0 cells [6]): 113%
tumor hypoxic fraction [5]: 12.8±0.7%
change of tumor hypoxia (in words) [5]: significant increase of tumor hypoxia; also recorded: significantly increases tumor hypoxia
